{"source": "paper PMC12631102", "about": "“SYT4 Interacts with PSMC6 to Facilitate Malignant Progression in Gastric Carcinoma via Activating Wnt/β-catenin Signaling” (International Journal of Biological Sciences, 2025)", "target": "T1, Synaptotagmin-4 (SYT4) (Homo sapiens, UniProt Q9H2B2)", "T1 construct": "Recombinant SYT4 protein", "T1 sequence (Q9H2B2 1-425)": "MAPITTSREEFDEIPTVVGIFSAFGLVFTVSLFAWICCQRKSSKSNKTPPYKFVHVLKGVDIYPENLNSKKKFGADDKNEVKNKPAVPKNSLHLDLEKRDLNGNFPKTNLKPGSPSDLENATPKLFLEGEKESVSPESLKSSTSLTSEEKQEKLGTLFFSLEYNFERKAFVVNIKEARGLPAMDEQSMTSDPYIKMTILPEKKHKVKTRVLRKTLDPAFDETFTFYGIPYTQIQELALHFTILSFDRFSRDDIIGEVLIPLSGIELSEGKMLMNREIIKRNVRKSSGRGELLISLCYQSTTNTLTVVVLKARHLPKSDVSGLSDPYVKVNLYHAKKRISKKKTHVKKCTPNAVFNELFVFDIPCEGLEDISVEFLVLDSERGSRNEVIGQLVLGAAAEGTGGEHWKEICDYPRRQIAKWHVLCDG", "test": "SPR (Biacore T200, SYT4 immobilized on CM5 chip)", "assay_type": "binding", "data": [{"smiles": "C=CC(=O)Nc1ccc2[nH]c(=O)n(C3CCN(Cc4ccc(-c5nc6cc[nH]c(=O)c6cc5-c5ccccc5)cc4)CC3)c2c1", "note": "[borussertib]", "values": [{"measurement": "Kd", "value": 16, "unit": "µM"}]}]}
